Measured values as given in ChEMBL document CHEMBL1133561, “A novel class of potent 3-isoxazolol GABA(A) antagonists: design, synthesis, and pharmacology” (J Med Chem, 2000).

What was measured:
[1] = biological target: GABA-A receptor; anion channel; test: In vitro inhibition of [3H]muscimol to rat brain synaptic membranes; format: cell membranes, Membrane
[2] = biological target: GABA-A receptor; anion channel; test: Inhibition of Gamma-aminobutyric acid A (GABA-A) receptor in vitro by whole-cell patch-clamp recording in cultured cerebral cortical neurones; format: functional, Rattus norvegicus
[3] = biological target: GABA-A receptor; anion channel; test: Inhibition against Gamma-aminobutyric acid A (GABA-A) receptor; format: protein-complex assay, Rattus norvegicus

Compound | Ki [1] | IC50 [2] | IC50 [3]
Cc1c(O)noc1C1CCNCC1 | 10 µM |  | 
Oc1noc(C2CCNCC2)c1Cc1ccccc1 | 3.8 µM | 4 µM | 
Oc1noc(C2CCNCC2)c1Cc1c2ccccc2cc2ccccc12 | 5.9 µM |  | 
Cc1c(O)noc1CN |  |  | > 100 µM
Oc1noc(C2CCNCC2)c1CCc1ccc2ccccc2c1 | 0.49 µM |  | 
CCc1c(O)noc1C1CCNCC1 | 6.3 µM |  | 
Oc1noc(C2CCNCC2)c1Cc1ccc2ccccc2c1 | 0.049 µM |  | 
